# Measured values as given in patent US20210060060A1, “COMPOSITIONS AND METHODS FOR THE TREATMENT OF LUNG EMPHYSEMA AND OTHER FORMS OF COPD” (Emphysema Solutions BV, priority 2018, published 2021).
# Where two headings read alike, the source gives them in different places.
# Assays:
# [1] = tested on: porcine pancreatic elastase (PPE)-induced emphysema; test: Porcine pancreatic elastase (PPE)-induced emphysema model in mice
# Procedure: Methods: In order to assess the effects of copper sulfate plus heparin on both elastin and collagen metabolism in vivo, we used a porcine pancreatic elastase (PPE)-induced emphysema model. Study was conducted in male BALB/c mice aged 7 weeks with a starting body weight of about 25 g. During the study period, all mice were housed in a conventional animal house with a 12/12 h light-dark cycle in filter-top cages and supplied with pelleted food and water ad libitum. 1.5 U porcine pancreatic elastase in 25 μL saline was intratracheally administered on day 1 under light anesthesia. […] On day 35, mice were anesthetized intraperitoneally with a mixture of xylazine (8.5 mg/kg) and ketamine (130 mg/kg), they were tracheotomized and placed in a whole-body plethysmograph to assess lung function. After lung function measurements, mice were euthanized by an intracardiac administration of pentobarbital. The left lung will be snap-frozen in liquid nitrogen and stored at −80° C. for subsequent gene expression studies where ELN, LOX and LOXL1 were measured. The right lung was fixed in 6% paraformaldehyde at a constant hydrostatic pressure of 25 cm fluid column for 24 h. After dehydration and embedding in paraffin, sagittal sections will be stained with various stains and used for histological analyses to measure airspace enlargement (mean linear intercept); and subsequently this lung was used for measuring concentrations of both DES and insoluble collagen. Brains were taken out to measure copper concentrations.
# copper-deficient chicks = settings: copper repletion in copper-deficient chicks, ref. [7]; cited from earlier work
# rats' lungs = settings: copper repletion after copper-deficient diet, ref. [15]; cited from earlier work
# [2] = tested on: pulmonary rat fibroblasts; test: Fibroblast cell cultures: vitamin K or magnesium sulfate on top of copper sulfate (6c); assay type: cell-based; settings: added to copper sulfate (+8*initial copper concentration in medium); for accumulation of collagen: compared to copper sulfate monotherapy
# From the text: (§1) Cell cultures with pulmonary rat fibroblasts. • 7.
# (§2) We first measured copper levels in the fibroblast medium.
# [3] = tested on: pulmonary rat fibroblasts
# From the text: as §1, §2
# [4] = fibroblasts grown 21 days, copper sulfate added +0.5 to +32*initial copper concentration in medium
# [5] = intratracheal on day 1, 8, 15, 22 and 29, day 35, compared to placebo
Molecule,DES accumulation [2],ELN gene expression [2],LOX gene expression [2],LOXL1 gene expression [2],insoluble elastin levels [2],tropo-elastin levels [2],accumulation of collagen [2],other results
[Cu] [copper],,,,,,,,"effect on cerebral copper concentrations ([1]; intratracheally administered, mice): no effect; deposition of protease-resistant elastin fibers (copper-deficient chicks): near normal values; ultrastructure of pulmonary elastin (rats' lungs): restored the ultrastructure of pulmonary elastin to near normal"
CC(C)=CCC/C(C)=C/CC/C(C)=C/CC/C(C)=C/CC1=C(C)C(=O)c2ccccc2C1=O [vitamin K2],additional stimulating effect,no stimulating effect,no stimulating effect,no stimulating effect,additional stimulating effect,no stimulating effect,no additional stimulating effect,
O=S(=O)([O-])[O-].[Cu+2] [copper sulfate],,,,,,,,"copper concentration at which the dose response curve with regard to DES levels topped off ([3]; added on top of the baseline copper (+)): ~8 *initial copper concentration in the fibroblast medium; DES levels [3, 4]: increased; ELN gene expression [3, 4]: did not have any effect; LOX activity [3, 4]: increased; LOX gene expression [3, 4]: increased; LOXL1 gene expression [3, 4]: increased; accumulation of collagen in the lungs ([1]; conclusion of the mouse study): induced accumulation and maturation of collagen fibers; elastin repair process / repair of damaged elastin fibers ([1]; conclusion of the mouse study): very effectively stimulated; DES levels in lung tissue [1, 5]: higher; Mean linear intercept [1, 5]: lower; hydroxyproline levels in lung [1, 5]: elevated; hyperinflation in the lung function tests (total lung capacity) ([1]; intratracheal on day 1, 8, 15, 22 and 29, measured day 35, compared to placebo): More hyperinflation was present in the lung function tests of mice from the placebo group"
heparin,,,,,,,,"effect on systemic coagulation ([1]; mouse, in vivo): did not have any effect"
O=S(=O)([O-])[O-].[Mg+2] [magnesium sulfate],additional stimulating effect,no stimulating effect,no stimulating effect,no stimulating effect,,no stimulating effect,no additional stimulating effect,
CC1=C(C/C=C(\C)CCC[C@H](C)CCC[C@H](C)CCCC(C)C)C(=O)c2ccccc2C1=O [vitamin K1],additional stimulating effect,no stimulating effect,no stimulating effect,no stimulating effect,additional stimulating effect,no stimulating effect,no additional stimulating effect,
